Consider 1 compound from US20050106292A1, “High moisture, shelf-stable acidulated food products” (priority 2003, published 2005).

A short description of the series: Contact of acidic solution with human skin. The conditions noted are these: solution with a pH of less than 0.5. Format: in vivo.

The structures appear in SMILES notation.

On to `O=S(=O)(O)O` [sulfuric acid], for which the “irritation or injury of the hand put into the solution” value is listed as “an irritation would occur”.
